What was measured:
Experiment in all cases: radiometric filter-binding kinase assay
AURKB (human) = AURKB (human) (UniProt Q96GD4)
PRKACA (human) = PRKACA (human) (UniProt P17612)
PRKCZ (human) = PRKCZ (human) (UniProt Q05513)
MAP2K6 (human) = MAP2K6 (human) (UniProt P52564)
[1] = tested on: AKT1 (human), P31749 [S473D]
MAP3K1 (human) = MAP3K1 (human) (UniProt Q13233)
ROCK2 (rat) = settings: accession and sequence are those of the human protein
EPHA2 (human) = EPHA2 (human) (UniProt P29317)
EPHB4 (human) = EPHB4 (human) (UniProt P54760)
FLT1 (human) = FLT1 (human) (UniProt P17948)
RIPK2 (human) = RIPK2 (human) (UniProt O43353)
MAP2K2 (human) = MAP2K2 (human) (UniProt P36507)
LCK (mouse) = settings: accession and sequence are those of the human protein
RPS6KA1 KD1 KD2 (human) = RPS6KA1 KD1 KD2 (human) (UniProt Q15418)
NEK6 (human) = NEK6 (human) (UniProt Q9HC98)
CaMK1 (human) = CaMK1 (human) (UniProt Q14012)
TTK (human) = TTK (human) (UniProt P33981)
MAPKAPK5 (human) = MAPKAPK5 (human) (UniProt Q8IW41)
MARK2 (human) = MARK2 (human) (UniProt Q7KZI7)
PIM3 (human) = PIM3 (human) (UniProt Q86V86)
IGF1R (human) = IGF1R (human) (UniProt P08069)
[2] = tested on: RPS6KB1 (human), P23443 [T412E]
CHEK1 (human) = CHEK1 (human) (UniProt O14757)
IRAK4 (human) = IRAK4 (human) (UniProt Q9NWZ3)
MAPK14 (human) = MAPK14 (human) (UniProt Q16539)
STK33 (human) = STK33 (human) (UniProt Q9BYT3)
SYK (human) = SYK (human) (UniProt P43405)
ERBB4 (human) = ERBB4 (human) (UniProt Q15303)

TTK (human), sequence (P33981 whole entry, looked up): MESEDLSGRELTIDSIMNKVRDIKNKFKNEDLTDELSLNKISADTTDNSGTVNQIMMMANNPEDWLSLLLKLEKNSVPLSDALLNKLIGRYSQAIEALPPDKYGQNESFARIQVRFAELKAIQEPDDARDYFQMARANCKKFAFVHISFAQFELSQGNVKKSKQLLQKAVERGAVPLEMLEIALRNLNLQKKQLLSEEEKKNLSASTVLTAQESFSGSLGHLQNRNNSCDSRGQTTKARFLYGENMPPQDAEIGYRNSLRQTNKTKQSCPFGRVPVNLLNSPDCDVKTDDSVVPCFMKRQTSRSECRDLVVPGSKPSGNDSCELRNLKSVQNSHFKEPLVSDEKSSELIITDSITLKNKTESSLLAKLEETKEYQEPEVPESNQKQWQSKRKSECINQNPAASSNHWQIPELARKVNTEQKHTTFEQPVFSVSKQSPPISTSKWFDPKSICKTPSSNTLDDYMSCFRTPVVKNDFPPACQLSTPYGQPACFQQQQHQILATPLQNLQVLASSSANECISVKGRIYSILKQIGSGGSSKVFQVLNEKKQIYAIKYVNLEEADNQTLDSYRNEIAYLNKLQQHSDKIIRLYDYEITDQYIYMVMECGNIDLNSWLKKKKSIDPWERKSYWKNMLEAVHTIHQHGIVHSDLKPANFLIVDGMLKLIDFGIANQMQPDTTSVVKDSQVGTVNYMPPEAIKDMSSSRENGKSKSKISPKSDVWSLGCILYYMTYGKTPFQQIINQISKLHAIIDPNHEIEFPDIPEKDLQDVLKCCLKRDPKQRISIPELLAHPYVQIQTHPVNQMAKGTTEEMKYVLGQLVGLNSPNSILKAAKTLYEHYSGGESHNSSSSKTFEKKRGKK
AKT1 (human), P31749 [S473D], sequence (P31749 whole entry S473D, looked up): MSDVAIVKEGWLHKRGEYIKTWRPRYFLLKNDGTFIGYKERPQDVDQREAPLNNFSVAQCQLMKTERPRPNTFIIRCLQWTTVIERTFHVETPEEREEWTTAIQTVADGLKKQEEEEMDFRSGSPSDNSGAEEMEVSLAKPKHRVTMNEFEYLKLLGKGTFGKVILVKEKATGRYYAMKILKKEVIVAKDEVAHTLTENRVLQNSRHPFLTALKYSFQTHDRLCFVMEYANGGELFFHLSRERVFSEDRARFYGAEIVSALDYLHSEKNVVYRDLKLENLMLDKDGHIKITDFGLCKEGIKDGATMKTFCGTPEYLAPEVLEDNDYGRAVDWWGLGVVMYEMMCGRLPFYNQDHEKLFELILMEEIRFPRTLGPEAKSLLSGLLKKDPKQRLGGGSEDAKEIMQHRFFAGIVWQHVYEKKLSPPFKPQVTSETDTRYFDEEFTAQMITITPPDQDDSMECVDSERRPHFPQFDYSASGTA
EPHB4 (human), sequence (P54760 whole entry, looked up): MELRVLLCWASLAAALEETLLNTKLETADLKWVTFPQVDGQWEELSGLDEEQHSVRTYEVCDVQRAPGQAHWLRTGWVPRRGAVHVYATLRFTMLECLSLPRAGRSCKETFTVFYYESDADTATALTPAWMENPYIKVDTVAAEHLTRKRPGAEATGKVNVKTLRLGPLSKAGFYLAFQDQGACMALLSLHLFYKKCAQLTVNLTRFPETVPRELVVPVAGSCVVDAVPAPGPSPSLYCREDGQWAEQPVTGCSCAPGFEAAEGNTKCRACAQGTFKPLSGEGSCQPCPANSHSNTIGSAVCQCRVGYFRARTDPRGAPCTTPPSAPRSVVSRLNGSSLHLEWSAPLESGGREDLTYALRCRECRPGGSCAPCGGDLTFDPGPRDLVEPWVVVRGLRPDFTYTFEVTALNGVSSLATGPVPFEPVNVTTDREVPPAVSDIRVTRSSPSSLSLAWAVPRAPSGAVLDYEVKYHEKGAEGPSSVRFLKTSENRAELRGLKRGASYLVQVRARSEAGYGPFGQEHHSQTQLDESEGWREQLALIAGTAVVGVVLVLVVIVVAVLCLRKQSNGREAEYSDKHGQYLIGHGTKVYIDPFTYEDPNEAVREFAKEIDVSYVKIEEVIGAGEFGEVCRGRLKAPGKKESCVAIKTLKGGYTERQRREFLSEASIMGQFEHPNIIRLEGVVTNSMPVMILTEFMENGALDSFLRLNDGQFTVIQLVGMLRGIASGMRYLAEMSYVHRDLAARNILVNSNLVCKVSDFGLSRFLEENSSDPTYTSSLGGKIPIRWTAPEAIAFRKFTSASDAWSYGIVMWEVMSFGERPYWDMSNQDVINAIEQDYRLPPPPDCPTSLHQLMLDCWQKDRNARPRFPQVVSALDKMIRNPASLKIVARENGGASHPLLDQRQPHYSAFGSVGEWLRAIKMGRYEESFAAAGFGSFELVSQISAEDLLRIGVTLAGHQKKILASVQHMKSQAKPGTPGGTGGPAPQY
IGF1R (human), sequence (P08069 whole entry, looked up): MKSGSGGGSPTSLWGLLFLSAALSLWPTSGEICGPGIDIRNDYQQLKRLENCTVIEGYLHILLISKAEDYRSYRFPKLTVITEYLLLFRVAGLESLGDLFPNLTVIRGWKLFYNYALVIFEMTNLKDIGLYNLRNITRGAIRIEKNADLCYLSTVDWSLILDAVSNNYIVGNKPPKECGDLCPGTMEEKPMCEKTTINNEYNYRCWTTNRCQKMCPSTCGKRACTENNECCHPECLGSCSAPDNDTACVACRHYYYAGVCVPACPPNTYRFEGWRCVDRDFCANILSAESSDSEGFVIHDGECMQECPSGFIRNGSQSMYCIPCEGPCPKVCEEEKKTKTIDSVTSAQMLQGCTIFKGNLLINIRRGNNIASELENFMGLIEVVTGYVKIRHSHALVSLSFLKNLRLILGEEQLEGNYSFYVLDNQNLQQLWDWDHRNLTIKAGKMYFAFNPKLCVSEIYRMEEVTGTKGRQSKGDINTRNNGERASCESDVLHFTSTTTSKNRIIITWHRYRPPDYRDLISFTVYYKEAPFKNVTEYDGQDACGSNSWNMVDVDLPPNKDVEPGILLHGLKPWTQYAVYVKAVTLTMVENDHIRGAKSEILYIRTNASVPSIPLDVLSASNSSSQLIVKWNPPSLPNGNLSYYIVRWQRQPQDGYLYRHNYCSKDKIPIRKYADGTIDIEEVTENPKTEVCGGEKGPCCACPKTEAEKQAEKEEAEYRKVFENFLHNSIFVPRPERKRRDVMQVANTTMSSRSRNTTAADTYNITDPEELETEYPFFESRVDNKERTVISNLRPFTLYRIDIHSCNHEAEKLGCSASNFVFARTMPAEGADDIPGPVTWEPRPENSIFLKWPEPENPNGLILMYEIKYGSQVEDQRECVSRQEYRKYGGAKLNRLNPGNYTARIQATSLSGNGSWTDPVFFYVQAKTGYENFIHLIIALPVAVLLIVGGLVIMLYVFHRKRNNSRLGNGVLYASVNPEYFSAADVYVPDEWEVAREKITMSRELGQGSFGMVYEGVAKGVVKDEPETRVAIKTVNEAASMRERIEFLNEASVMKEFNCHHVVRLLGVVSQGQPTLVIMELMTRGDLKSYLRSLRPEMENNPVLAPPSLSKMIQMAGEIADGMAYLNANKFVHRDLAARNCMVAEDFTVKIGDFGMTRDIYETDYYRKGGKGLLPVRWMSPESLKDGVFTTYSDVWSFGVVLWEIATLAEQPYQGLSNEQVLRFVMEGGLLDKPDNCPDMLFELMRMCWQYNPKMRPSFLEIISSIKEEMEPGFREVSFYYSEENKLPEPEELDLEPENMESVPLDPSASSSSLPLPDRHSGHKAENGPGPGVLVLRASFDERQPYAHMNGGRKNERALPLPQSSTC
STK33 (human), sequence (Q9BYT3 whole entry, looked up): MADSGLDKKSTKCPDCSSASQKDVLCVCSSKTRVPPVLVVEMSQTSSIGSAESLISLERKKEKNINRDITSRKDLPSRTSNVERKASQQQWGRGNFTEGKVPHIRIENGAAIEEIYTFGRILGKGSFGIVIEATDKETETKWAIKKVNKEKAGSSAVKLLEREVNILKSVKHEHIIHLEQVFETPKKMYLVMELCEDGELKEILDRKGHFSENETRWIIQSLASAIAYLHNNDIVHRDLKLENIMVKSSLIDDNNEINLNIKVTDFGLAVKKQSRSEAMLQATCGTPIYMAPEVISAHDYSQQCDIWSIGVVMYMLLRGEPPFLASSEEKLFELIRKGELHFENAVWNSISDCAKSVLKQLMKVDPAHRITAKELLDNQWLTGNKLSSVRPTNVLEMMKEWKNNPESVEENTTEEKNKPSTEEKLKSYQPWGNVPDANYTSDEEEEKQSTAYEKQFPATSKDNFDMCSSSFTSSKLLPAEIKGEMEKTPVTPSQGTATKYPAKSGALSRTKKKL
MAP2K2 (human), sequence (P36507 whole entry, looked up): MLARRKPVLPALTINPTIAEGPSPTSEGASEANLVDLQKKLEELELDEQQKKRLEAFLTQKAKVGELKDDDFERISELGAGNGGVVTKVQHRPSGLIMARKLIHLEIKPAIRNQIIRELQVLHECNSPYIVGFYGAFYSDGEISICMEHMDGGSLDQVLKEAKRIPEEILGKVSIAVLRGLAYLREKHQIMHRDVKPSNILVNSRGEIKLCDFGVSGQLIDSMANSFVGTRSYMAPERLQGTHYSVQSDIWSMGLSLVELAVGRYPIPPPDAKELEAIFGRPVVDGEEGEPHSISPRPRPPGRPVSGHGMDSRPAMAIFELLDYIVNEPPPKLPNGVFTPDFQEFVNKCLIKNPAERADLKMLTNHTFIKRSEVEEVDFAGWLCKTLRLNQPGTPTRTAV
AURKB (human), sequence (Q96GD4 whole entry, looked up): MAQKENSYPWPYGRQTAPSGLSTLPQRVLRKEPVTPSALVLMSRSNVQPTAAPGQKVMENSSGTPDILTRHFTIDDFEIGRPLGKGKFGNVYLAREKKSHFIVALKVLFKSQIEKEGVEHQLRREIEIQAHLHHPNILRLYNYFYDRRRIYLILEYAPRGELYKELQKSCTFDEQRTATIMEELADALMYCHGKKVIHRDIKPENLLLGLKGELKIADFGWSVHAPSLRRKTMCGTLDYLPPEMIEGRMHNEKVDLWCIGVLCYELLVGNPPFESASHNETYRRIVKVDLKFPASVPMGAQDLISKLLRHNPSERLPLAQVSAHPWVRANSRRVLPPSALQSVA

Compound: CCN1CCN(Cc2ccc(NC(=O)c3ccc(C)c(Oc4ccnc5[nH]ccc45)c3)cc2C(F)(F)F)CC1
- residual activity (AURKB (human); compound 0.1 µM): 116%
- residual activity (AURKB (human); compound 1.0 µM): 108%
- residual activity (AURKB (human); compound 10.0 µM): 118%
- residual activity (PRKACA (human); compound 0.1 µM): 100%
- residual activity (PRKACA (human); compound 1.0 µM): 93.4%
- residual activity (PRKACA (human); compound 10.0 µM): 76.2%
- residual activity (PRKCZ (human); compound 0.1 µM): 99.4%
- residual activity (PRKCZ (human); compound 1.0 µM): 96%
- residual activity (PRKCZ (human); compound 10.0 µM): 92.7%
- residual activity (MAP2K6 (human); compound 0.1 µM): 118%
- residual activity (MAP2K6 (human); compound 1.0 µM): 158%
- residual activity (MAP2K6 (human); compound 10.0 µM): 133%
- residual activity ([1]; compound 0.1 µM): 105%
- residual activity ([1]; compound 1.0 µM): 100%
- residual activity ([1]; compound 10.0 µM): 69%
- residual activity (MAP3K1 (human); compound 0.1 µM): 127%
- residual activity (MAP3K1 (human); compound 1.0 µM): 111%
- residual activity (MAP3K1 (human); compound 10.0 µM): 108%
- residual activity (ROCK2 (rat); compound 0.1 µM): 91.7%
- residual activity (ROCK2 (rat); compound 1.0 µM): 71.2%
- residual activity (ROCK2 (rat); compound 10.0 µM): 25.5%
- residual activity (EPHA2 (human); compound 0.1 µM): 74%
- residual activity (EPHA2 (human); compound 1.0 µM): 19.5%
- residual activity (EPHA2 (human); compound 10.0 µM): 13.7%
- residual activity (EPHB4 (human); compound 0.1 µM): 97.3%
- residual activity (EPHB4 (human); compound 1.0 µM): 92.6%
- residual activity (EPHB4 (human); compound 10.0 µM): 42.7%
- residual activity (FLT1 (human); compound 0.1 µM): 69.5%
- residual activity (FLT1 (human); compound 1.0 µM): 15.2%
- residual activity (FLT1 (human); compound 10.0 µM): 2.74%
- residual activity (RIPK2 (human); compound 0.1 µM): 103%
- residual activity (RIPK2 (human); compound 1.0 µM): 78.9%
- residual activity (RIPK2 (human); compound 10.0 µM): 13.5%
- residual activity (MAP2K2 (human); compound 0.1 µM): 131%
- residual activity (MAP2K2 (human); compound 1.0 µM): 116%
- residual activity (MAP2K2 (human); compound 10.0 µM): 96.8%
- residual activity (LCK (mouse); compound 0.1 µM): 12.7%
- residual activity (LCK (mouse); compound 1.0 µM): 0.851%
- residual activity (LCK (mouse); compound 10.0 µM): 5.77%
- residual activity (RPS6KA1 KD1 KD2 (human); compound 0.1 µM): 107%
- residual activity (RPS6KA1 KD1 KD2 (human); compound 1.0 µM): 84.3%
- residual activity (RPS6KA1 KD1 KD2 (human); compound 10.0 µM): 37.9%
- residual activity (NEK6 (human); compound 0.1 µM): 104%
- residual activity (NEK6 (human); compound 1.0 µM): 84.6%
- residual activity (NEK6 (human); compound 10.0 µM): 73.5%
- residual activity (CaMK1 (human); compound 0.1 µM): 68.7%
- residual activity (CaMK1 (human); compound 1.0 µM): 17.2%
- residual activity (CaMK1 (human); compound 10.0 µM): 3.79%
- residual activity (TTK (human); compound 0.1 µM): 91.2%
- residual activity (TTK (human); compound 1.0 µM): 98.1%
- residual activity (TTK (human); compound 10.0 µM): 66.1%
- residual activity (MAPKAPK5 (human); compound 0.1 µM): 105%
- residual activity (MAPKAPK5 (human); compound 1.0 µM): 97.4%
- residual activity (MAPKAPK5 (human); compound 10.0 µM): 92.2%
- residual activity (MARK2 (human); compound 0.1 µM): 92.7%
- residual activity (MARK2 (human); compound 1.0 µM): 74.5%
- residual activity (MARK2 (human); compound 10.0 µM): 85.5%
- residual activity (PIM3 (human); compound 0.1 µM): 107%
- residual activity (PIM3 (human); compound 1.0 µM): 108%
- residual activity (PIM3 (human); compound 10.0 µM): 98.9%
- residual activity (IGF1R (human); compound 0.1 µM): 107%
- residual activity (IGF1R (human); compound 1.0 µM): 84.8%
- residual activity (IGF1R (human); compound 10.0 µM): 6.46%
- residual activity ([2]; compound 0.1 µM): 107%
- residual activity ([2]; compound 1.0 µM): 63.6%
- residual activity ([2]; compound 10.0 µM): 12.9%
- residual activity (CHEK1 (human); compound 0.1 µM): 114%
- residual activity (CHEK1 (human); compound 1.0 µM): 105%
- residual activity (CHEK1 (human); compound 10.0 µM): 110%
- residual activity (IRAK4 (human); compound 0.1 µM): 98.6%
- residual activity (IRAK4 (human); compound 1.0 µM): 102%
- residual activity (MAPK14 (human); compound 0.1 µM): 41%
- residual activity (MAPK14 (human); compound 1.0 µM): 3.48%
- residual activity (MAPK14 (human); compound 10.0 µM): 2.61%
- residual activity (STK33 (human); compound 0.1 µM): 106%
- residual activity (STK33 (human); compound 1.0 µM): 96.7%
- residual activity (STK33 (human); compound 10.0 µM): 79.6%
- residual activity (SYK (human); compound 0.1 µM): 103%
- residual activity (SYK (human); compound 1.0 µM): 47.1%
- residual activity (SYK (human); compound 10.0 µM): 11.5%
- residual activity (ERBB4 (human); compound 0.1 µM): 105%
- residual activity (ERBB4 (human); compound 1.0 µM): 76.8%
- residual activity (ERBB4 (human); compound 10.0 µM): 36.9%

Source: the kinase profiling compilation of Christmann-Franck et al. (2016)
